In patent publication US10669256B2, “Crystalline forms of lasmiditan, preparation methods, pharmaceutical compositions and uses thereof” (priority 2016, dated 2020):
“Also recorded” adds a separate entry of the source. Where a name gives a salt, the structure may show the parent alone.

Key:
[1] = Solid state stability experiment (XRD after storage at room temperature under dry condition); type: physicochemical; details: for 1 day test results (solid form by XRD): stored 1 day; for 10 days test results (solid form by XRD): stored 10 days
Description: X-ray powder diffraction (XRPD): performed on Bruder D8 Advance diffractometer. Samples were tested at room temperature. Testing conditions: […] 3-40°, step size 0.02°, and speed 0.2 s/step.
Solid state stability experiment: Placed 20 mg of each of lasmiditan amorphous form of preparation Example 1, lasmiditan hydrochloride amorphous of Preparation Example 2, lasmiditan Form 1, lasmiditan Form 2, lasmiditan Form 3, lasmiditan hydrochloride Form A, lasmiditan hydrochloride Form B, lasmiditan hydrochloride Form C, and lasmiditan hydrochloride Form E of the present invention at room temperature under dry condition, took the samples out and analyzed by XRD at the corresponding time, their XRD pattern are shown in FIGS. 16-18 and FIGS. 46-50.

[2] = Dynamic vapor sorption / isothermal sorption (hygroscopicity); type: physicochemical; details: for weight change (isothermal sorption plot): between 0 to 80% RH; for weight change (DVS isothermal sorption plot): between 20 to 80% RH
Description: Dynamic vapor sorption data and isothermal sorption data were collected on TA Instruments Q5000 TGA. Method: A sample of 1 to 10 mg was placed in a platinum pan; the weight change of the sample during the change in relative humidity from 0% to 80% to 0% was measured.

Row | SMILES | 1 day test results (solid form by XRD) ([1]; hydrochloride) | weight change (isothermal sorption plot) [2] | 1 day test results (solid form by XRD) [1] | 10 days test results (solid form by XRD) [1] | weight change (isothermal sorption plot) ([2]; hydrochloride) | 10 days test results (solid form by XRD) ([1]; hydrochloride) | weight change (DVS isothermal sorption plot) [2] | other results
1 | CN1CCC(C(=O)c2cccc(NC(=O)c3c(F)cc(F)cc3F)n2)CC1 [Lasmiditan hydrochloride Form E, lasmiditan hydrochloride] | Change to Form A | – | – | – | – | – | – | 1 day test results (solid form by XRD) ([1]; listed as lasmiditan hydrochloride Form E, hydrochloride): converted to Form A
2 | CN1CCC(C(=O)c2cccc(NC(=O)c3c(F)cc(F)cc3F)n2)CC1 [Lasmiditan Form 3, 2,4,6-trifluoro-N-[6-(1-methyl-piperidine-4-carbonyl)pyridin-2-yl]-benzamide] | – | 0.7% | Form 3 | Form 3 | – | – | – | 10 days test results (solid form by XRD) ([1]; listed as lasmiditan Form 3): still remained their original forms; also recorded: remained unchanged
3 | CN1CCC(C(=O)c2cccc(NC(=O)c3c(F)cc(F)cc3F)n2)CC1 [Lasmiditan hydrochloride Form C, lasmiditan hydrochloride] | Form C | – | – | – | 0.9% | Form C | – | 10 days test results (solid form by XRD) ([1]; listed as lasmiditan hydrochloride Form C, hydrochloride): remained unchanged; also recorded: still remained their original forms
4 | CN1CCC(C(=O)c2cccc(NC(=O)c3c(F)cc(F)cc3F)n2)CC1 [Lasmiditan hydrochloride Form B, lasmiditan hydrochloride] | Form B | – | – | – | 4.2% | Form B | – | 10 days test results (solid form by XRD) ([1]; listed as lasmiditan hydrochloride Form B, hydrochloride): remained unchanged; also recorded: still remained their original forms
5 | CN1CCC(C(=O)c2cccc(NC(=O)c3c(F)cc(F)cc3F)n2)CC1 [Lasmiditan amorphous form, 2,4,6-trifluoro-N-[6-(1-methyl-piperidine-4-carbonyl)pyridin-2-yl]-benzamide, reference compound] | – | 9.5% | began to crystallize | – | – | – | 9.5% | weight change (isothermal sorption plot) ([2]; listed as Preparation Example 1): 9.5%
6 | CN1CCC(C(=O)c2cccc(NC(=O)c3c(F)cc(F)cc3F)n2)CC1 [Lasmiditan hydrochloride Form A, lasmiditan hydrochloride] | Form A | – | – | – | 0.1% | Form A | – | 10 days test results (solid form by XRD) ([1]; listed as lasmiditan hydrochloride Form A, hydrochloride): remained unchanged; also recorded: still remained their original forms
7 | CN1CCC(C(=O)c2cccc(NC(=O)c3c(F)cc(F)cc3F)n2)CC1 [Lasmiditan Form 1, 2,4,6-trifluoro-N-[6-(1-methyl-piperidine-4-carbonyl)pyridin-2-yl]-benzamide] | – | 0.1% | Form 1 | Form 1 | – | – | 0.1% | 10 days test results (solid form by XRD) ([1]; listed as lasmiditan Form 1): remained unchanged; also recorded: still remained their original forms
8 | CN1CCC(C(=O)c2cccc(NC(=O)c3c(F)cc(F)cc3F)n2)CC1 [Lasmiditan Form 2, 2,4,6-trifluoro-N-[6-(1-methyl-piperidine-4-carbonyl)pyridin-2-yl]-benzamide] | – | 0.1% | Form 2 | Form 2 | – | – | 0.1% | 10 days test results (solid form by XRD) ([1]; listed as lasmiditan Form 2): still remained their original forms; also recorded: remained unchanged
9 | CN1CCC(C(=O)c2cccc(NC(=O)c3c(F)cc(F)cc3F)n2)CC1 [Lasmiditan hydrochloride amorphous form, lasmiditan hydrochloride, reference compound] | began to crystallize | – | – | – | 8.1% | – | – | weight change (isothermal sorption plot) ([2]; listed as Preparation Example 2, hydrochloride): 8.1%
